Test results published in the supplement of paper PMC11208160.

Assay: recombinant barcode read abundance after kanamycin selection (control-corrected) (log10(CPM+1)); higher = more efficient recombination; sequences stand for … in AGTGCAGAGAAAATCGGCCAGTTTTCTCTGCCTGCAGTCCGCATGCCGT…AGATTTATGCAGCGGACTGCCTTTCTCCCAAAGTGATAAACCGGACAGTATCATGGACCGGTTTTCCCGGTAATCCGTATTTGCAAGGTTGGTTTCACT; site = the 11-nt target
Summary of the method: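 Recombination efficiency draws on barcodes counted at recombinant junctions in a pooled E. coli screen of targets paired with IS621 bridge RNA target-binding loops. The counts were converted to counts per million, averaged and corrected against the chloramphenicol/ampicillin LB agar control, then reported as log10(CPM+1). Selection plates held chloramphenicol/ampicillin/kanamycin with 0.1 mM IPTG, with two replicates per condition.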
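Further: IS621 recombinase and bridge RNA in Escherichia coli cells.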

| Sequence | recombinant barcode read abundance (log10) |
| --- | --- |
| TGTGTCCCTTGGGTTCTAACCTGTTGCCT (site TGGGTCCCTAG) | 0.123 |
| TGTGTCCCTTGGGTTCTAACCTGTTGCCT (site TGTGTCCCTAG) | 1.14 |
| TGTTAGTCTTGGGTTCTAACCTGTTGCCG (site TGTTAGACTAG) | 0.0136 |
| TGTTAGTCTTGGGTTCTAACCTGTTGCCG (site TGTTAGTCTCG) | 0.0597 |
| TGTTCAGCTTGGGTTCTAACCTGTTGCCT (site CACAGGCCTCT) | 0.0146 |
| TGTTCAGCTTGGGTTCTAACCTGTTGCCT (site TGTTCAGCTAG) | 0.066 |
| TGTTCTACTTGGGTTCTAACCTGTTGCTT (site TGATCTACTAA) | 0.0326 |
| TGTTCTACTTGGGTTCTAACCTGTTGCTT (site TGCTCTACTAA) | 0.246 |
| TGTTCTACTTGGGTTCTAACCTGTTGCTT (site TGGTCTACTAA) | 0.0191 |
| TGTTCTACTTGGGTTCTAACCTGTTGCTT (site TGTTCTACTAA) | 0.0296 |
| TGTTGAGCTTGGGTTCTAACCTGTTGCAG (site TGTAGAGCTCT) | 0.148 |
| TGTTGAGCTTGGGTTCTAACCTGTTGCAG (site TGTTGAGCTCT) | 0.468 |
| TGTTGGACTTGGGTTCTAACCTGTTGCTT (site TCTTAGACTAA) | 0.0262 |
| TGTTGGACTTGGGTTCTAACCTGTTGCTT (site TGTTGGACTAA) | 0.16 |
| TGTTGGTCTTGGGTTCTAACCTGTTGCTT (site GAACTCCCTCC) | 0.0579 |
| TGTTGGTCTTGGGTTCTAACCTGTTGCTT (site TGTTGGTCTAA) | 0.0212 |
| TGTTGTCCTTGGGTTCTAACCTGTTGCTG (site AACATAACTAC) | 0.141 |
| TGTTGTCCTTGGGTTCTAACCTGTTGCTG (site TGTTGTCCTCA) | 0.0482 |
| TGTTGTGCTTGGGTTCTAACCTGTTGCCT (site TGGCGTGCTAG) | 0.101 |
| TGTTGTGCTTGGGTTCTAACCTGTTGCCT (site TGTTGTGCTAG) | 0.109 |
| TTAAATCCTTGGGTTCTAACCTGTTGCCT (site ATAAATCCTAG) | 0.143 |
| TTAAATCCTTGGGTTCTAACCTGTTGCCT (site CTAAATCCTAG) | 0.183 |

| Sequence | recombinant barcode read abundance (log10) |
| --- | --- |
| TTAAATCCTTGGGTTCTAACCTGTTGCCT (site GTAAATCCTAG) | 0.249 |
| TTAAATCCTTGGGTTCTAACCTGTTGCCT (site TTAAATCCTAG) | 0.219 |
| TTAACGGCTTGGGTTCTAACCTGTTGCCT (site TTAACGGCTAG) | 0.556 |
| TTAACGGCTTGGGTTCTAACCTGTTGCCT (site TTCACGGCTAG) | 0.186 |
| TTACAGGCTTGGGTTCTAACCTGTTGCCG (site GGCATCCCTTA) | 0.0374 |
| TTACAGGCTTGGGTTCTAACCTGTTGCCG (site TTACAGGCTCG) | 1.13 |
| TTACCAACTTGGGTTCTAACCTGTTGCCT (site TTACCAACTAG) | 1.61 |
| TTACCAACTTGGGTTCTAACCTGTTGCCT (site TTACCCACTAG) | 0.629 |
| TTACCAACTTGGGTTCTAACCTGTTGCCT (site TTACCGACTAG) | 0.0912 |
| TTACCAACTTGGGTTCTAACCTGTTGCCT (site TTACCTACTAG) | 0.12 |
| TTACCGACTTGGGTTCTAACCTGTTGCCT (site TTACCAACTAG) | 1.23 |
| TTACCGACTTGGGTTCTAACCTGTTGCCT (site TTACCCACTAG) | 0.242 |
| TTACCGACTTGGGTTCTAACCTGTTGCCT (site TTACCGACTAG) | 2.33 |
| TTACCGACTTGGGTTCTAACCTGTTGCCT (site TTACCTACTAG) | 0.0567 |
| TTACGTCCTTGGGTTCTAACCTGTTGCGG (site TCACGTCCTCC) | 1.31 |
| TTACGTCCTTGGGTTCTAACCTGTTGCGG (site TTACGTCCTCC) | 1.74 |
| TTAGACCCTTGGGTTCTAACCTGTTGCAG (site AGGTCTACTTG) | 0.0942 |
| TTAGACCCTTGGGTTCTAACCTGTTGCAG (site TTAGACCCTCT) | 3.46 |
| TTAGACCCTTGGGTTCTAACCTGTTGCCT (site ATAGACCCTAG) | 1.3 |
| TTAGACCCTTGGGTTCTAACCTGTTGCCT (site CTAGACCCTAG) | 1.11 |
| TTAGACCCTTGGGTTCTAACCTGTTGCCT (site GTAGACCCTAG) | 0.341 |
| TTAGACCCTTGGGTTCTAACCTGTTGCCT (site TTAGACCCTAG) | 2.99 |

| Sequence | recombinant barcode read abundance (log10) |
| --- | --- |
| TTAGACTCTTGGGTTCTAACCTGTTGCCT (site TTAGACTCTAG) | 2.48 |
| TTAGACTCTTGGGTTCTAACCTGTTGCCT (site TTCGACGCTAG) | 0.172 |
| TTAGACTCTTGGGTTCTAACCTGTTGCTA (site TTAGACTCTTA) | 2.36 |
| TTAGACTCTTGGGTTCTAACCTGTTGCTA (site TTAGACTCTTG) | 1.25 |
| TTAGAGACTTGGGTTCTAACCTGTTGCCT (site TTAGAGACTAG) | 2.32 |
| TTAGAGACTTGGGTTCTAACCTGTTGCCT (site TTAGAGCCTAG) | 0.303 |
| TTAGAGACTTGGGTTCTAACCTGTTGCCT (site TTAGAGGCTAG) | 1.4 |
| TTAGAGACTTGGGTTCTAACCTGTTGCCT (site TTAGAGTCTAG) | 0.195 |
| TTAGATCCTTGGGTTCTAACCTGTTGCAT (site TTAGATCCTAT) | 1.62 |
| TTAGATCCTTGGGTTCTAACCTGTTGCAT (site TTAGGTCCTCT) | 0.00789 |
| TTAGGGCCTTGGGTTCTAACCTGTTGCCT (site TTAGGGACTAG) | 0.0406 |
| TTAGGGCCTTGGGTTCTAACCTGTTGCCT (site TTAGGGCCTAG) | 0.719 |
| TTAGGGCCTTGGGTTCTAACCTGTTGCCT (site TTAGGGGCTAG) | 0.0469 |
| TTAGGGCCTTGGGTTCTAACCTGTTGCCT (site TTAGGGTCTAG) | 0.0494 |
| TTAGGTCCTTGGGTTCTAACCTGTTGCTT (site TTAAGTCCTAT) | 0.357 |
| TTAGGTCCTTGGGTTCTAACCTGTTGCTT (site TTAGGTCCTAA) | 1.64 |
| TTAGTAGCTTGGGTTCTAACCTGTTGCCT (site TTAGTAGCTAG) | 1.84 |
| TTAGTAGCTTGGGTTCTAACCTGTTGCCT (site TTAGTCGCTAG) | 0.0769 |
| TTAGTAGCTTGGGTTCTAACCTGTTGCCT (site TTAGTGGCTAG) | 0.0632 |
| TTAGTAGCTTGGGTTCTAACCTGTTGCCT (site TTAGTTGCTAG) | 0.0874 |
| TTAGTCCCTTGGGTTCTAACCTGTTGCCT (site TTAGTACCTAG) | 0.113 |
| TTAGTCCCTTGGGTTCTAACCTGTTGCCT (site TTAGTCCCTAG) | 2.42 |

| Sequence | recombinant barcode read abundance (log10) |
| --- | --- |
| TTAGTCCCTTGGGTTCTAACCTGTTGCCT (site TTAGTGCCTAG) | 0.202 |
| TTAGTCCCTTGGGTTCTAACCTGTTGCCT (site TTAGTTCCTAG) | 0.0847 |
| TTAGTGGCTTGGGTTCTAACCTGTTGCCT (site TTAGTAGCTAG) | 0.607 |
| TTAGTGGCTTGGGTTCTAACCTGTTGCCT (site TTAGTCGCTAG) | 0.0499 |
| TTAGTGGCTTGGGTTCTAACCTGTTGCCT (site TTAGTGGCTAG) | 0.978 |
| TTAGTGGCTTGGGTTCTAACCTGTTGCCT (site TTAGTTGCTAG) | 0.0338 |
| TTATCCGCTTGGGTTCTAACCTGTTGCCT (site CGTAGACCTTA) | 0.0341 |
| TTATCCGCTTGGGTTCTAACCTGTTGCCT (site TTATCCGCTAG) | 1.77 |
| TTATCTCCTTGGGTTCTAACCTGTTGCTT (site TCGTCTCCTAA) | 0.0381 |
| TTATCTCCTTGGGTTCTAACCTGTTGCTT (site TTATCTCCTAA) | 0.205 |
| TTCAAAACTTGGGTTCTAACCTGTTGCCT (site TTCAAAACTAG) | 0.103 |
| TTCAAAACTTGGGTTCTAACCTGTTGCCT (site TTCAAACCTAG) | 0.0651 |
| TTCAAAACTTGGGTTCTAACCTGTTGCCT (site TTCAAAGCTAG) | 0.0504 |
| TTCAAAACTTGGGTTCTAACCTGTTGCCT (site TTCAAATCTAG) | 0.0229 |
| TTCAAAGCTTGGGTTCTAACCTGTTGCCT (site TTCAAAACTAG) | 0.0225 |
| TTCAAAGCTTGGGTTCTAACCTGTTGCCT (site TTCAAACCTAG) | 0.0449 |
| TTCAAAGCTTGGGTTCTAACCTGTTGCCT (site TTCAAAGCTAG) | 0.0407 |
| TTCAAAGCTTGGGTTCTAACCTGTTGCCT (site TTCAAATCTAG) | 0.0721 |
| TTCACAGCTTGGGTTCTAACCTGTTGCCT (site TTCACACCTAG) | 0.0537 |
| TTCACAGCTTGGGTTCTAACCTGTTGCCT (site TTCACAGCTAG) | 0.133 |
